How the values were obtained:
[1] = target: T1, peripheral-type benzodiazepine receptor (PBR) in Y-1 cells (Mus musculus, UniProt P50637); assay: [3H]PK 11195 binding in Y-1 adrenocortical cells; settings: 37° C.; for rank order of compound displacement potency against [3H]PK 11195 binding: FIG. 2a
T1 construct: Y-1 cell cultures were scraped from the flasks; host or cells: Y-1 mouse adrenal tumor cells
Protocol: (§1) Cells--The Y-1 adrenal mouse tumor cell line used in these studies was obtained from the American Type Culture Collection (ATCC #CCL 79). Stock cultures were grown in modified Waymouth's MB752/l medium containing 20 mM HEPES, 1.2 g/l NaHCO3, 15% horse serum and 2.5% fetal calf serum, pH 7.4. Before use the cells were washed three times at 30 min intervals, with serum-free media in order to eliminate serum components that may interfere with the assays and were incubated for the indicated time periods in the presence of the drugs under investigation. Bovine fasciculata-reticularis and adrenocortical cells from adult (300 g) Sprague-Dawley rats were prepared as previously described by Yanagibashi et al, (1989) Endocrinology 124; 2838-2391.
Radioligand binding assays--Y-1 cell cultures were scraped from the flasks ([…]) in 5 ml of Kreb's buffer, dispersed by repetitive pipetting, and centrifuged at 1,200 × g for 5 min. The cell pellets were resuspended in Kreb's buffer and larger cellular aggregates were allowed to settle for 5 min. The finely dispersed cell suspensions were taken for further experimentation.
Binding assays were performed in a total volume of 250-400 ul of Kreb's buffer containing [^3 H]PK 11195 (0.07-20 nM) with 5 ug of cellular protein. Incubations were conducted at 37° C. for 30 min and bound radioligand was measured by filtration through Whatman GF/C filters followed by four rapid 5 ml washes with 25 mM Tris-HCl (pH 7.4) containing 1 uM PK 11195. Filters were subjected to liquid scintillation counting. Nonspecific binding was measured in the presence (of 10 uM nonradioactive PK 11195.

[2] = test system: purified rat Leydig cells; assay: Testosterone production by purified rat Leydig cells, basal and hCG stimulated; settings: for Testosterone, No Additions / stimulation of testosterone production / effect on testosterone production (in words): basal; for Testosterone, No Additions / Testosterone, hCG (50 ng/ml): 4 hours at 32° C., mean ± S.D. n = 3; for Testosterone, No Additions: control 1.30 ± 0.20; for Testosterone, hCG (50 ng/ml): control 15.13 ± 2.05; for stimulation of testosterone production / effect on testosterone production (in words): purified rat Leydig cells; for stimulation of testosterone production: 240 min
MA-10 Leydig cells = assay: Progesterone production in MA-10 Leydig cells; assay type: cell-based, mouse; settings: MA-10 cells, 4 hours incubation
Protocol: (§2) Cells--The MA-10 cell line originally cloned from the solid M5480P mouse Leydig cell tumor used in these experiments was obtained from Dr. Mario Ascoli (The Population Council, Rockefeller University, N.Y.). Stock cultures were grown in modified Waymouth's MB752/1 medium containing 20 mM HEPES, 1.2 g/l NaHCO3 and 15% horse serum, pH 7.4 as described by Ascoli (1981) Endocrinology 108, 88-95. Before use, the MA-10 Leydig cells were washed three times, in 30 min intervals, with serum-free media in order to eliminate serum components that may interfere with the assays and incubated for the indicated periods of time in the presence of the indicated substances. Testicular interstitial cells were prepared by enzymatic dissociation of testes obtained from adult Sprague-Dawley (300 g) rats. This preparation contained 20-30% 3β-hydroxysteroid dehydrogenase positive cells (Leydig cells). Leydig cells were further purified using discontinuous Percoll gradient centrifugation as described by Papadopoulos et al., 1985 FEBS Letters 188, 312-316. The preparations obtained contained 75-85% Leydig cells as shown by the histochemical staining for 3β-hydroxysteroid dehydrogenase by the procedure of Papadopoulos et al., FEBS Letters 188, supra. [^3 H]PK 11195 binding assays--Cells were scraped from 75 cm^2 culture flasks into 5 ml of Kreb's buffer, dispersed by trituration, and centrifuged at 1,200 × g for 5 min. The cell pellets were resuspended in buffer and larger cell aggregates were allowed to settle to the bottom of the tube before the cell suspension was retrieved for experimentation.
Steroid Biosynthesis--These experiments were performed with the MA-10 Leydig cells plated in 12×22 mm wells and incubated for the times shown and in the presence of the indicated substances at a final volume of 1 ml of serum-free media at 37° C. […]
Progesterone and 20-γ-hydroxyprogesterone production for the MA-10 cells, and testosterone accumulation for the rat Leydig cells were measured by means of radioimmunoassay. […]

PBR in MA-10 cells = target: T2, PBR in MA-10 cells (Mus musculus, UniProt P50637); assay: [3H]PK 11195 binding in MA-10 Leydig cells; settings: 37° C.
T2 construct: endogenous in cells; host or cells: MA-10 mouse Leydig tumor cells (from Dr. Mario Ascoli)
T2 sequence (P50637 whole entry): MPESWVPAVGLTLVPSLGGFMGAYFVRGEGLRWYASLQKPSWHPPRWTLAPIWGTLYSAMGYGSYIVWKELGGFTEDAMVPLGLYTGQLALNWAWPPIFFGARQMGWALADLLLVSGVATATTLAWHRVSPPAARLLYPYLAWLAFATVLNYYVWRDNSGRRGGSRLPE
Protocol: as §2
[^3 H]PK 11195 binding studies on 5 ug of protein from the cell suspensions were performed in 250-400μl of Kreb's buffer at 37° C., essentially the same conditions under which the
effects of the compounds on steroidogenesis were studied. Nonspecific binding was determined in the presence of 10 μM PK 11195. […] Radioactivity trapped on the filters was determined by liquid scintillation counting. […]

[3] = Serum testosterone after intravenous alpidem in rats (dosing studies); assay type: in vivo; settings: adult Sprague-Dawley rats
Protocol: Alpidem was suspended in isotonic saline by sonication and administered intravenously to adult Sprague-Dawley rats (200-300 g). The doses used ranged from 0.01-1.5 mg/kg, the highest concentration being just below the level needed for behavioral effects to be observed. Control rats were injected with saline alone to serve as control for measurement of basal serum levels of testosterone. After specific times the rats were killed by decapitation and blood was collected. Serum was prepared and testosterone was measured by radioimmunoassay. Each point included three rats for all permutations of each time point and concentration of alpidem used.

Y-1 adrenocortical cells = assay: Steroid (20-hydroxyprogesterone) secretion in Y-1 cells; assay type: cell-based, mouse
Protocol: as §1
Measurement of steroid production--These experiments were performed with the Y-1 cells plated in 12--22 mm wells and incubated for the times shown at a final volume of 1 ml of serum-free media at 37° C. […] Steroid production was determined by measuring 20-γ-hydroxyprogesterone, the main steroid product of these cells, using a radioimmunoassay with an antibody donated by Dr. G. Nieswender (Univ. of Colorado, Fort Collins), under the process described in Kowal J. (1970), Recent Progress in Hormone Research 26, 623-687 and Schimmer B.P. (1981) in Functionally Differentiated Cell Lines, ed. […]

[4] = read-out: dissociation constant (Scatchard analysis)

T1 sequence (P50637 whole entry): as above

CC(Cc1cc(-c2ccccc2)nc2ccccc12)C(=O)N(C)C (single isomer, unassigned; (+)) [PK 14068, (+) N,N-dimethyl-x-methyl-2-phenyl-4-quinoline propanamide]
rank order of compound displacement potency against [3H]PK 11195 binding [1]: alpidem>PK 11195>PK 14067>4'-chlorodiazepam>zolpidem>PK 14608, diazepam>flunitrazepam>clonazepam>flumazenil
Testosterone, No Additions ([2]; compound 10^-5 M): 1.16 ± 0.15 ng/10^5 cel s/4 hours
Testosterone, hCG (50 ng/ml) ([2]; compound 10^-5 M): 13.50 ± 1.51 ng/10^5 cel s/4 hours

CC(Cc1cc(-c2ccccc2)nc2ccccc12)C(=O)N(C)C (single isomer, unassigned; (-)) [PK 14067, (-) N,N-dimethyl-x-methyl-2-phenyl-4-quinoline propanamide]
rank order of compound displacement potency against [3H]PK 11195 binding [1]: alpidem>PK 11195>PK 14067>4'-chlorodiazepam>zolpidem>PK 14608, diazepam>flunitrazepam>clonazepam>flumazenil
stimulation of progesterone production (MA-10 Leydig cells): 3 to 4 fold
Testosterone, No Additions ([2]; compound 10^-6 M): 2.20 ± 0.30 ng/10^5 cel s/4 hours
Testosterone, hCG (50 ng/ml) ([2]; compound 10^-6 M): 14.13 ± 1.49 ng/10^5 cel s/4 hours

CCC(C)N(C)C(=O)c1cc2ccccc2c(-c2ccccc2Cl)n1 (stereo not drawn) [PK 11195, 1-(2-chlorophenyl)-N-methyl-N-(l-methylpropyl)-3-isoquinoline carboxamide]
Bmax [1]: 54 pmol/mg of protein
time to reach binding equilibrium [1]: ≤ 15 min
rank order of compound displacement potency against [3H]PK 11195 binding [1]: alpidem>PK 11195>PK 14067>4'-chlorodiazepam>zolpidem>PK 14608, diazepam>flunitrazepam>clonazepam>flumazenil
Kd [1, 4]: 1.8 nM
stimulation of progesterone production (MA-10 Leydig cells): 3 to 4 fold
Testosterone, No Additions ([2]; compound 10^-6 M): 2.33 ± 0.21 ng/10^5 cel s/4 hours
Testosterone, hCG (50 ng/ml) ([2]; compound 10^-6 M): 14.86 ± 1.51 ng/10^5 cel s/4 hours
stimulation of testosterone production [2]: about 2 fold
density of binding sites (PBR in MA-10 cells): 56 pmol/mg of protein
time to reach steady-state specific binding (PBR in MA-10 cells): 10 min
Kd (PBR in MA-10 cells; [4]): 1.8 nM

CCCN(CCC)C(=O)Cc1c(-c2ccc(Cl)cc2)nc2ccc(Cl)cn12 [alpidem]
rank order of compound displacement potency against [3H]PK 11195 binding [1]: alpidem>PK 11195>PK 14067>4'-chlorodiazepam>zolpidem>PK 14608, diazepam>flunitrazepam>clonazepam>flumazenil
time for which elevated testosterone levels were maintained [3]: at least 4 hours
increase in serum testosterone levels ([3]; doses greater than or equal to 0.01 mg/kg): 2-4 times above control levels
stimulation of progesterone production (MA-10 Leydig cells): 3 to 4 fold
Testosterone, No Additions ([2]; compound 10^-7 M): 2.35 ± 0.27 ng/10^5 cel s/4 hours
Testosterone, hCG (50 ng/ml) ([2]; compound 10^-7 M): 15.02 ± 2.31 ng/10^5 cel s/4 hours
stimulation of testosterone production [2]: about 2 fold

O=C1CN=C(c2ccccc2Cl)c2cc([N+](=O)[O-])ccc2N1 [clonazepam]
rank order of compound displacement potency against [3H]PK 11195 binding [1]: alpidem>PK 11195>PK 14067>4'-chlorodiazepam>zolpidem>PK 14608, diazepam>flunitrazepam>clonazepam>flumazenil
Testosterone, No Additions ([2]; compound 10^-5 M): 1.16 ± 0.11 ng/10^5 cel s/4 hours
Testosterone, hCG (50 ng/ml) ([2]; compound 10^-5 M): 14.90 ± 2.22 ng/10^5 cel s/4 hours
effect on testosterone production (in words) [2]: no effect
effect on steroid production (in words) (Y-1 adrenocortical cells): failed to stimulate steroid production

CN1C(=O)CN=C(c2ccccc2)c2cc(Cl)ccc21 [diazepam]
rank order of compound displacement potency against [3H]PK 11195 binding [1]: alpidem>PK 11195>PK 14067>4'-chlorodiazepam>zolpidem>PK 14608, diazepam>flunitrazepam>clonazepam>flumazenil
Testosterone, No Additions ([2]; compound 10^-5 M): 1.90 ± 0.10 ng/10^5 cel s/4 hours
Testosterone, hCG (50 ng/ml) ([2]; compound 10^-5 M): 14.96 ± 3.09 ng/10^5 cel s/4 hours
effect on testosterone production (in words) [2]: less potent

CCOC(=O)c1ncn2c1CN(C)C(=O)c1cc(F)ccc1-2 [flumazenil]
rank order of compound displacement potency against [3H]PK 11195 binding [1]: alpidem>PK 11195>PK 14067>4'-chlorodiazepam>zolpidem>PK 14608, diazepam>flunitrazepam>clonazepam>flumazenil
effect on steroid production (in words) (Y-1 adrenocortical cells): failed to stimulate steroid production

CN1C(=O)CN=C(c2ccccc2F)c2cc([N+](=O)[O-])ccc21 [flunitrazepam]
rank order of compound displacement potency against [3H]PK 11195 binding [1]: alpidem>PK 11195>PK 14067>4'-chlorodiazepam>zolpidem>PK 14608, diazepam>flunitrazepam>clonazepam>flumazenil

Cc1ccc(-c2nc3ccc(C)cn3c2CC(=O)N(C)C)cc1 [zolpidem]
rank order of compound displacement potency against [3H]PK 11195 binding [1]: alpidem>PK 11195>PK 14067>4'-chlorodiazepam>zolpidem>PK 14608, diazepam>flunitrazepam>clonazepam>flumazenil

Source: patent publication US5032595A, “Method of stimulating steroidogenesis with alpidem” (FIDIA-Georgetown Institute for the Neurosciences, priority 1989, dated 1991)
